From the supplement of paper PMC10307832

Legend:
Assay in all cases: relative viability (nuclei count vs DMSO), 5 days (fraction); higher = more cells survive
[1] = compound: C1CSC2=C(C(=O)N1)SC3=C2C=C(C=C3)O [kb NB 142-70] + Nc1ncn([C@H]2C[C@H](O)[C@@H](CO)O2)c(=O)n1 [Decitabine] (partner 2 µM)
Summary of the method: (§1)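 Each reported value is a median over duplicate plates. It expresses relative viability: treated-well nuclei count divided by vehicle-well nuclei count. Lung cancer cell lines in 1536-well plates were dosed by pin tool a day after seeding, alone with one drug or with a fixed anchor-drug dose plus five library-drug doses (not always all listed) in √10 steps, and nuclei were counted after 5 days.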

[2] = compound: NCC(=O)Nc1ccc(-n2nc(C(F)(F)F)cc2-c2ccc3c(ccc4ccccc43)c2)cc1 + Nc1ncn([C@H]2C[C@H](O)[C@@H](CO)O2)c(=O)n1 [Decitabine] (partner 2 µM)
Summary of the method: as §1

[3] = compound: C1CSC2=C(C(=O)N1)SC3=C2C=C(C=C3)O [kb NB 142-70] + N=C(N)NC(=N)NCCc1ccccc1 [Phenformin] (partner 250 µM)
Summary of the method: as §1

[4] = compound: NCC(=O)Nc1ccc(-n2nc(C(F)(F)F)cc2-c2ccc3c(ccc4ccccc43)c2)cc1 + C[C@]1(O)C[C@@H](c2nc(-c3ccc4ccc(-c5ccccc5)nc4c3)c3c(N)nccn32)C1 [Linsitinib] (partner 1 µM)
Summary of the method: as §1

Cell Line: UMC-11
- relative viability ([1]; first compound 0.1 µM): 0.547
- relative viability ([1]; first compound 1 µM): 0.639
- relative viability ([1]; first compound 3.162 µM): 0.378
- relative viability ([2]; first compound 0.02 µM): 0.63
- relative viability ([2]; first compound 0.06325 µM): 0.593
- relative viability ([2]; first compound 0.2 µM): 0.557
- relative viability ([2]; first compound 0.6325 µM): 0.539
- relative viability ([2]; first compound 2 µM): 0.701
- relative viability ([3]; first compound 0.1 µM): 0.338
- relative viability ([3]; first compound 1 µM): 0.307
- relative viability ([3]; first compound 3.162 µM): 0.251
- relative viability ([4]; first compound 0.02 µM): 0.995
- relative viability ([4]; first compound 0.06325 µM): 1.03
- relative viability ([4]; first compound 0.2 µM): 1.16
- relative viability ([4]; first compound 0.6325 µM): 0.966
- relative viability ([4]; first compound 2 µM): 0.918
